# Experimental data as given in patent US20210346312A1, “Flat Product for Microbiological Sanitation of the Urogenital Tract” (Tecuro Medical GmbH, priority 2018, published 2021).
# Tested on: Reconstituted human 3D EpiVaginal models
# Experiment: Cytotoxicity test (MTT assay, based on DIN ISO 10993-5)
# Type: cell-based
# Details: positive control, 1%, typical value
# Protocol: To determine the compatibility of a planar product for treatment of the urogenital tract, the Cytotoxicity Test described below can be used. It is based on the standard DIN ISO 10993-5.
# Reconstituted human 3D EpiVaginal models (e.g., MatTek) are used. To this end, an element of 6 mm in diameter from a planar product according to the invention is topically applied to the 3D EpiVaginal skin models and incubated on the models for 3 and 18 hours. Skin models treated with sterile water are used as negative control, and skin models treated with the […] surfactant Triton X-100 (1%) are used as positive control. The vitality of the skin models is evaluated in the MTT assay (3-(4,5-dimethylthiazol-2-yl)-2,5-diphenyltetrazolium bromide) (see Stockert et al. Acta Histochemica 120: 159-167 (2018), doi: 10.1016/j.acthis.2018.02.005; Chacon et al. In Vitro Methods in Pharmaceutical Research, ISBN 9780080534602 and https://en.wikipedia.org/wiki/MTT_assay). This involves setting the vitality value of the negative control to 100%. […] According to the invention, what is considered to be an acceptable value is typically a vitality of >80% after 18 h.
substance,measurement,setting,value
Triton X-100,vitality after 3 h of incubation,3 h,25%
same,vitality after 18 h,18 h,less than 10%
